Here are results for five compounds from patent US12071438B2, “Crystal forms of an ALK2 inhibitor” (Keros Therapeutics, Inc., priority 2018, dated 2024).

Holding throughout (type): physicochemical
A short description of one data set: XRPD analysis after DVS. The conditions noted are these: post-DVS. As to the method: X-ray powder diffraction (XRPD) patterns were collected on a Bruker D8 diffractometer using Cu Kα radiation (40 kV, 40 mA), θ-2θ goniometer and divergence of 0.6 mm and receiving slits, and a Lynxeye detector. The instrument is performance checked using a certified Corundum standard (NIST 1976). The software used for data collection was Diffrac Plus XRD Commander v2.6.1 and the data were analyzed and presented using Materials Data Jade Software v 9.7.0. Samples were prepared by transferring 2 to 50 mg of sample to a zero background holder coated with a thin layer of petroleum jelly and leveled with a glass plate and analyzed at ambient temperature. The sample was rotated in its own plane during analysis.
(§1) Dynamic vapor sortion/desportion (DVS) analysis was conducted with a Hiden Isochema, IGAsorp, s/n IGSA 126. Samples were loaded in to a tared basket on the instrument and dried for 1 hour at 40° C. Samples were then analyzed at 25° C. with the following percent relative humidity (% RH) steps: Adsorption (% RH): 0.0, 10.0, 20.0, 30.0, 40.0, 50.0, 60.0, 70.0, 80.0, 90.0, 95.0, Desorption (% RH): 90.0, 80.0, 70.0, 60.0, 50.0, 40.0, 30.0, 20.0, 10.0, 0.0.

Data set [1] in a line: Dynamic vapor sorption/desorption (DVS). The conditions noted are these: for hygroscopicity by DVS / DVS weight gain and loss: 25° C.; for hygroscopicity by DVS: 0-95% RH; for DVS weight gain and loss: adsorption 0-95% RH, desorption to 0% RH. As to the method:
as §1

A short description of data set [2]: Form A and Form B competitive slurries (thermodynamically stable polymorph). On the procedure:
To determine the thermodynamically stable polymorph between anhydrous Forms A and B, competitive slurries were conducted in three different solvent systems: ethanol, tetrahydrofuran, and 2-butanone (MEK)/water (95:5). Ethanol and tetrahydrofuran were chosen based on the solubility of the material. MEK was chosen as a potential process solvent and water was added to boost the solubility.
Thus, additional competitive slurries were conducted in three additional solvent systems: ethanol/heptane (1:5), ethyl acetate/water (97:3), and isopropanol/water (99:1). The ethanol/heptane system was evaluated at −15° C., 5° C., ambient (RT), and 40° C. The water containing systems were only evaluated at ambient temperature. The slurries were conducted for 7 days instead of 5 days, as done in the above slurries. Form D was also included in the competitive slurries containing water.

A short description of data set [3]: 97% RH stress in polymorph screening study. The conditions noted are these: RT, no solvent.

`COc1cc2c(-c3cnn4cc(N5CCC(N6CCN(C)CC6)CC5)cnc34)ccnc2cc1F` [compound of Formula I free base, 7-fluoro-6-methoxy-4-(6-(4-(4-methylpiperazin-1-yl)piperidin-1-yl)pyrazolo[1,5-a]pyrimidin-3-yl)quinoline]: the “XRPD after DVS analysis (form change)” value in “XRPD analysis after DVS” is given as “No change”. In addition, in data set [1], the “hygroscopicity by DVS” value is given as “non-hygroscopic”; the “DVS weight gain and loss” value is 0.5%.

Consider `COc1cc2c(-c3cnn4cc(N5CCC(N6CCN(C)CC6)CC5)cnc34)ccnc2cc1F` [Form C], for which the “thermodynamic stability at high water activity” value in data set [2] (high water activity (97:3 EtOAc/water)) was “more favored”.

With `COc1cc2c(-c3cnn4cc(N5CCC(N6CCN(C)CC6)CC5)cnc34)ccnc2cc1F` [Form A], the “polymorph stability over time (competitive slurries)” value in data set [2] (40° C. down to −15° C., 7 days versus 5 days) is listed as “most stable polymorph”. For the same compound, the “thermodynamic stability at low water activity” value in data set [2] (low water activity (99:1 IPA/water)) was “most thermodynamically stable”. Besides, the “XRPD after DVS analysis (form change)” value in “XRPD analysis after DVS” was “becomes highly disordered and converts to the hydrate, Form C”. Moreover, in data set [1], the “hygroscopicity by DVS” value is listed as “hygroscopic”; the “DVS weight gain and loss” value came out at 38%. In data set [1] (below 80% RH), the “hygroscopicity by DVS below 80% RH” value is “non-hygroscopic”.

As to `COc1cc2c(-c3cnn4cc(N5CCC(N6CCN(C)CC6)CC5)cnc34)ccnc2cc1F` [Form B], the “XRPD after DVS analysis (form change)” value in “XRPD analysis after DVS” was “consistent with Form B”. Also, in data set [1], the “hygroscopicity by DVS” value is on record as “slightly hygroscopic”; the “DVS weight gain and loss” value was 12%. Further, the “moisture gain onset in DVS” value in data set [1] (low relative humidities) is given as “begins immediately even at low relative humidities”.

For the compound `COc1cc2c(-c3cnn4cc(N5CCC(N6CCN(C)CC6)CC5)cnc34)ccnc2cc1F`, the “XRPD Result” value in data set [3] is on record as “Form C,”.
